{"source": "patent US20030013692A1", "about": "“Methods of treating neurological disorders” (priority 2001, published 2003)", "origin": "cited, not measured here", "details": "nimodipine treated subarachnoid hemorrhage (SAH) patients"}
{"smiles": "COCCOC(=O)C1=C(C)NC(C)=C(C(=O)OC(C)C)C1c1cccc([N+](=O)[O-])c1", "note": "(stereo not shown) [nimodipine, Isopropyl (2-methoxyethyl) 1,4-dihydro-2,6-dimethyl-4-(3-nitrophenyl)-3,5-pyridine-dicarboxylate]", "values": [{"measurement": "concentration detected in the cerebrospinal fluid", "result": "≤ 12.5", "unit": "ng/mL"}]}
